# Data: patent publication US12655116B2, “Substituted isophthalic acid diamides” (Bayer Aktiengesellschaft, priority 2020, dated 2026)
# Columns and labels:
# LOLRI = test: Pre-emergence herbicidal action against LOLRI; format: in vivo, Lolium rigidum; conditions: 80 g/ha; for pest or weed control at 80 g/ha: Lolium rigidum, 504 h
# Method in brief: (§1)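 Greenhouse pots of sandy loam held seeds covered with soil, onto which the compound was applied before emergence. An aqueous suspension or emulsion of WP or EC was used at 600 to 800 l/ha with 0.2% wetting agent. Percent damage was judged visually at 3 weeks.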
# ABUTH [1] = test: Pre-emergence herbicidal action against ABUTH; format: in vivo, Abutilon theophrasti; conditions: for pest or weed control at 80 g/ha / pest or weed control at 20 g/ha: Abutilon theophrasti, 504 h; for pest or weed control at 20 g/ha: read-out: Pre-emergence action against ABUTH (herbicidal activity in percent)
# Method in brief: as §1
# VIOTR [2] = test: Pre-emergence herbicidal action against VIOTR; format: in vivo, Viola tricolor
# Method in brief: as §1
# ECHCG [3] = test: Pre-emergence herbicidal action against ECHCG; format: in vivo, Echinochloa crus-galli; conditions: 80 g/ha; for pest or weed control at 80 g/ha: Echinochloa crus-galli, 504 h
# Method in brief: as §1
# ALOMY [4] = test: Post-emergence herbicidal action against ALOMY; format: in vivo, Alopecurus myosuroides; conditions: dosage 20 g/ha, visual assessment about 3 weeks after treatment vs untreated controls; for pest or weed control at 20 g/ha: Alopecurus myosuroides, 504 h
# Method in brief: (§2)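 Foliar application at one-leaf stage of formulated test compounds, aqueous spray at 600–800 l/ha with 0.2% wetting agent. Greenhouse, optimal conditions, ~3 weeks; damage scored visually in % relative to untreated plants.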
# SETVI [5] = test: Pre-emergence herbicidal action against SETVI; format: in vivo, Setaria viridis
# Method in brief: as §1
# MATIN [6] = test: Post-emergence herbicidal action against MATIN; format: in vivo, Matricaria inodora
# Method in brief: as §2
# AMARE [7] = test: Post-emergence herbicidal action against AMARE; format: in vivo, Amaranthus retroflexus; conditions: 20 g/ha, visual assessment about 3 weeks after treatment, 100% = plants have died, 0% = like control plants; for pest or weed control at 20 g/ha: Amaranthus retroflexus, 504 h
# Method in brief: as §2
# ECHCG [8] = test: Post-emergence herbicidal action against ECHCG; format: in vivo, Echinochloa crus-galli; conditions: for pest or weed control at 5 g/ha / pest or weed control at 20 g/ha: Echinochloa crus-galli, 504 h; for pest or weed control at 5 g/ha: dosage 5 g/ha
# Method in brief: as §2
# VERPE [9] = test: Post-emergence herbicidal action against VERPE; format: in vivo, Veronica persica; conditions: 20 g/ha; for pest or weed control at 20 g/ha: Veronica persica, 504 h
# Method in brief: as §2
# VERPE [10] = test: Pre-emergence herbicidal action against VERPE; format: in vivo, Veronica persica; conditions: for pest or weed control at 80 g/ha: Veronica persica, 504 h
# Method in brief: as §1
# SETVI [11] = test: Post-emergence herbicidal action against SETVI; format: in vivo, Setaria viridis
# Method in brief: as §2
# VIOTR [12] = test: Post-emergence herbicidal action against VIOTR; format: in vivo, Viola tricolor; conditions: Viola tricolor, 504 h, 20 g/ha
# Method in brief: as §2
# DIGSA [13] = test: Pre-emergence herbicidal action against DIGSA; format: in vivo, Digitaria sanguinalis; conditions: for pest or weed control at 20 g/ha / pest or weed control at 80 g/ha: Digitaria sanguinalis, 504 h
# Method in brief: as §1
# ALOMY [14] = test: Pre-emergence herbicidal action against ALOMY; format: in vivo, Alopecurus myosuroides; conditions: 80 g/ha, pre-emergence, scored visually after 3 weeks vs untreated controls (100% = plants have died, 0% = like control plants); for pest or weed control at 80 g/ha: Alopecurus myosuroides, 504 h
# Method in brief: as §1
# DIGSA [15] = test: Post-emergence herbicidal action against DIGSA; format: in vivo, Digitaria sanguinalis
# Method in brief: as §2
# AMARE [16] = test: Pre-emergence herbicidal action against AMARE; format: in vivo, Amaranthus retroflexus; conditions: for pest or weed control at 20 g/ha / pest or weed control at 80 g/ha: Amaranthus retroflexus, 504 h
# Method in brief: as §1
# AVEFA = test: Pre-emergence herbicidal action against AVEFA; format: in vivo, Avena fatua; conditions: 80 g/ha, pre-emergence; for pest or weed control at 80 g/ha: Avena fatua, 504 h
# Method in brief: as §1
# PHBPU [17] = test: Post-emergence herbicidal action against PHBPU; format: in vivo, Pharbitis purpurea
# Method in brief: as §2
# ABUTH [18] = test: Post-emergence herbicidal action against ABUTH; format: in vivo, Abutilon theophrasti; conditions: visual assessment about 3 weeks after treatment vs untreated controls
# Method in brief: as §2
# POLCO = test: Pre-emergence herbicidal action against POLCO; format: in vivo, Polygonum convolvulus; conditions: dosage 80 g/ha; for pest or weed control at 80 g/ha: Fallopia convolvulus, 504 h
# Method in brief: as §1
# MATIN [19] = test: Pre-emergence herbicidal action against MATIN; format: in vivo, Matricaria inodora; conditions: for pest or weed control at 20 g/ha / pest or weed control at 80 g/ha: Tripleurospermum inodorum, 504 h
# Method in brief: as §1
# PHBPU [20] = test: Pre-emergence herbicidal action against PHBPU; format: in vivo, Pharbitis purpurea; conditions: dosage 80 g/ha; for pest or weed control at 80 g/ha: Ipomoea purpurea, 504 h
# Method in brief: as §1
# [21] = 80 g/ha, scored visually after 3 weeks vs untreated controls (100% = plants have died, 0% = like control plants)
# [22] = dosage 20 g/ha, scored visually after 3 weeks vs untreated controls, 100% = plants have died, 0% = like control plants
# [23] = Viola tricolor, 504 h, dosage 80 g/ha
# [24] = Setaria viridis, 504 h, dosage 80 g/ha
# [25] = Tripleurospermum inodorum, 504 h, dosage 20 g/ha
# [26] = Setaria viridis, 504 h, dosage 20 g/ha
# [27] = Digitaria sanguinalis, 504 h, 20 g/ha
# [28] = 20 g/ha, scored visually after 3 weeks vs untreated controls, 100% = plants have died, 0% = like control plants
# [29] = 80 g/ha, scored visually after 3 weeks vs untreated controls, 100% = plants have died, 0% = like control plants
# [30] = Ipomoea purpurea, 504 h, dosage 20 g/ha
# [31] = Abutilon theophrasti, 504 h, dosage 20 g/ha
structure (smiles),measurement,setting,value
Cc1c(C(=O)Nc2nnnn2C)ccc(C(F)(F)F)c1C(=O)NC(C)C [Example 1-33],pest or weed control at 80 g/ha,LOLRI,80%
same,pest or weed control at 80 g/ha,ABUTH [1]; [21],100%
same,pest or weed control at 20 g/ha,ABUTH [1]; [22],90%
same,pest or weed control at 20 g/ha,"VIOTR [2]; Viola tricolor, 504 h, dosage 20 g/ha",100%
same,pest or weed control at 80 g/ha,VIOTR [2]; [23],100%
same,pest or weed control at 80 g/ha,ECHCG [3],100%
same,pest or weed control at 20 g/ha,ALOMY [4],90%
same,pest or weed control at 80 g/ha,SETVI [5]; [24],100%
same,pest or weed control at 5 g/ha,"MATIN [6]; Tripleurospermum inodorum, 504 h, dosage 5 g/ha",80%
same,pest or weed control at 20 g/ha,MATIN [6]; [25],80%
same,pest or weed control at 20 g/ha,AMARE [7],100%
same,pest or weed control at 5 g/ha,ECHCG [8],80%
same,pest or weed control at 20 g/ha,ECHCG [8]; dosage 20 g/ha,90%
same,pest or weed control at 20 g/ha,VERPE [9],80%
same,pest or weed control at 80 g/ha,VERPE [10]; dosage 80 g/ha,100%
same,pest or weed control at 5 g/ha,"SETVI [11]; Setaria viridis, 504 h, dosage 5 g/ha",80%
same,pest or weed control at 20 g/ha,SETVI [11]; [26],90%
same,pest or weed control at 20 g/ha,VIOTR [12],80%
same,pest or weed control at 20 g/ha,DIGSA [13]; dosage 20 g/ha,100%
same,pest or weed control at 80 g/ha,DIGSA [13]; dosage 80 g/ha,100%
same,pest or weed control at 80 g/ha,ALOMY [14],100%
same,pest or weed control at 20 g/ha,DIGSA [15]; [27],90%
same,pest or weed control at 20 g/ha,AMARE [16]; [28],100%
same,pest or weed control at 80 g/ha,AMARE [16]; [29],100%
same,pest or weed control at 80 g/ha,AVEFA,100%
same,pest or weed control at 20 g/ha,PHBPU [17]; [30],80%
same,pest or weed control at 20 g/ha,ABUTH [18]; [31],90%
same,pest or weed control at 80 g/ha,POLCO,90%
same,pest or weed control at 20 g/ha,MATIN [19]; dosage 20 g/ha,100%
same,pest or weed control at 80 g/ha,MATIN [19]; dosage 80 g/ha,100%
same,pest or weed control at 80 g/ha,PHBPU [20],100%
CC(C)NC(=O)c1c(C(F)F)ccc(C(=O)Nc2nnnn2C)c1Cl [Example 1-155],pest or weed control at 80 g/ha,LOLRI,90%
same,pest or weed control at 80 g/ha,ABUTH [1]; [21],100%
same,pest or weed control at 20 g/ha,ABUTH [1]; [22],100%
same,pest or weed control at 80 g/ha,VIOTR [2]; [23],100%
same,pest or weed control at 80 g/ha,ECHCG [3],100%
same,pest or weed control at 20 g/ha,ALOMY [4],90%
same,pest or weed control at 20 g/ha,SETVI [5]; [26],80%
same,pest or weed control at 80 g/ha,SETVI [5]; [24],100%
same,pest or weed control at 20 g/ha,MATIN [6]; [25],80%
same,pest or weed control at 20 g/ha,AMARE [7],90%
same,pest or weed control at 5 g/ha,ECHCG [8],90%
same,pest or weed control at 20 g/ha,ECHCG [8]; dosage 20 g/ha,90%
same,pest or weed control at 20 g/ha,VERPE [9],80%
same,pest or weed control at 80 g/ha,VERPE [10]; dosage 80 g/ha,100%
same,pest or weed control at 20 g/ha,SETVI [11]; [26],80%
same,pest or weed control at 20 g/ha,DIGSA [13]; dosage 20 g/ha,100%
same,pest or weed control at 80 g/ha,DIGSA [13]; dosage 80 g/ha,100%
same,pest or weed control at 80 g/ha,ALOMY [14],90%
same,pest or weed control at 5 g/ha,"DIGSA [15]; Digitaria sanguinalis, 504 h, 5 g/ha",90%
same,pest or weed control at 20 g/ha,DIGSA [15]; [27],90%
same,pest or weed control at 20 g/ha,AMARE [16]; [28],100%
same,pest or weed control at 80 g/ha,AMARE [16]; [29],100%
same,pest or weed control at 80 g/ha,AVEFA,90%
same,pest or weed control at 5 g/ha,"PHBPU [17]; Ipomoea purpurea, 504 h, dosage 5 g/ha",90%
same,pest or weed control at 20 g/ha,PHBPU [17]; [30],90%
same,pest or weed control at 5 g/ha,"ABUTH [18]; Abutilon theophrasti, 504 h, dosage 5 g/ha",80%
same,pest or weed control at 20 g/ha,ABUTH [18]; [31],90%
same,pest or weed control at 80 g/ha,POLCO,90%
same,pest or weed control at 20 g/ha,MATIN [19]; dosage 20 g/ha,100%
same,pest or weed control at 80 g/ha,MATIN [19]; dosage 80 g/ha,100%
same,pest or weed control at 80 g/ha,PHBPU [20],100%
CCn1nnnc1NC(=O)c1ccc(C(F)F)c(C(=O)NC(C)C2CC2)c1C (stereo not drawn) [Example 2-339],Pre-emergence action against LOLRI in %,LOLRI,80%
same,Pre-emergence action against ABUTH (herbicidal activity),ABUTH [1]; [21],100%
same,Pre-emergence action against ABUTH (herbicidal activity in percent),ABUTH [1]; [22],100%
same,Pre-emergence action against VIOTR in %,VIOTR [2]; dosage 20 g/ha,100%
same,Pre-emergence action against VIOTR in %,VIOTR [2]; dosage 80 g/ha,100%
same,Pre-emergence action against ECHCG in %,ECHCG [3],100%
same,Post-emergence action against ALOMY in %,ALOMY [4],80%
same,Pre-emergence action against SETVI in %,SETVI [5]; dosage 80 g/ha,100%
same,Post-emergence action against MATIN in %,MATIN [6]; dosage 20 g/ha,80%
same,Post-emergence action at 20 g/ha against AMARE in %,AMARE [7],90%
same,Post-emergence action against ECHCG in %,ECHCG [8]; dosage 20 g/ha,90%
same,Post-emergence action against VERPE in %,VERPE [9],80%
same,Pre-emergence action against VERPE in %,VERPE [10]; dosage 20 g/ha,80%
same,Pre-emergence action against VERPE in %,VERPE [10]; dosage 80 g/ha,100%
same,Post-emergence action against SETVI in %,SETVI [11]; dosage 20 g/ha,100%
same,Pre-emergence action against DIGSA in %,DIGSA [13]; dosage 20 g/ha,100%
same,Pre-emergence action against DIGSA in %,DIGSA [13]; dosage 80 g/ha,100%
same,Pre-emergence action against ALOMY (herbicidal activity),ALOMY [14],90%
same,Post-emergence action against DIGSA in %,DIGSA [15]; 5 g/ha,80%
same,Post-emergence action against DIGSA,DIGSA [15]; 20 g/ha,90%
same,Pre-emergence action against AMARE in %,AMARE [16]; [28],100%
same,Pre-emergence action against AMARE in %,AMARE [16]; [21],100%
same,Pre-emergence action against AVEFA in %,AVEFA,80%
same,Post-emergence action against PHBPU in %,PHBPU [17]; dosage 5 g/ha,90%
same,Post-emergence action against PHBPU in %,PHBPU [17]; dosage 20 g/ha,90%
same,Post-emergence action against ABUTH in %,ABUTH [18]; dosage 5 g/ha,80%
same,Post-emergence action against ABUTH in %,ABUTH [18]; dosage 20 g/ha,80%
same,Pre-emergence action against POLCO in %,POLCO,80%
same,Pre-emergence action against MATIN in %,MATIN [19]; dosage 20 g/ha,100%
same,Pre-emergence action against MATIN in %,MATIN [19]; dosage 80 g/ha,100%
same,Pre-emergence action against PHBPU in %,PHBPU [20],80%
